Series [1] has as its system CBG luciferase (originating from Hikari Kometsuki). Briefly: Km value of CBG luciferase relative to D-luciferin and ATP (luminometer, photon count). The settings on record: 8 mM MgSO4, 0.1M Tris-HCl pH 8.0. Type of series: biochemical. The protocol: (§1) As for the blank, the buffer described above was employed. FIG. 6 illustrates the ultraviolet/visible light absorption spectrum of […].
(§2) Then, in order to calculate the concentration of ATP, the ultraviolet/visible light absorption spectrum of ATP was measured. In this measurement, the spectrum was measured using a diluted (by 2000 times) solution (in 0.1M Citrate/0.2M Na2HPO4 buffer, pH=7.0) of ATP stock solution (about 100 mM). As for the blank, the buffer described above was employed. FIG. 7 illustrates the ultraviolet/visible light absorption spectrum of ATP.
(§3) (Experiment Method 2: Purification of Various Kinds of Luciferase)
(§4) The purification of luciferase was performed according to the following procedure after establishing a luciferase-purification system utilizing affinity chromatography.
(§5) (Procedure of Transfection of Luciferase Expression Vector to Coli Bacillus)
(§6) First of all, 0.5 μL of luciferase expression vector was introduced into 50 μL of coli bacillus (JM109(DE3)). Then, the resultant liquid was subjected to a thermostatic treatment consisting of ice-cooling for 10 minutes, heating at 42° C. for one minute and ice-cooling for two minutes. Then, 2 μL of the resultant coli bacillus solution was added to 1 mL of an SOC culture medium.
(§7) Subsequently, the resultant solution of coli bacillus/SOC culture medium mixture was subjected to shaking at 37° C. for 20 minutes and to incubation. Then, 100 μL of the resultant solution was streaked onto an LB culture medium plate (Ampicillin 100 μg/mL+) and subjected to incubation overnight at 37° C.
(§8) (Purification of Luciferase by Means of Affinity Chromatography)
(§9) Then, the coli bacillus was fractured to obtain a raw extract, from which luciferase was purified by means of affinity chromatography.
(§10) Namely, first of all, a suspension of coli bacillus was subjected to centrifugal separation at 15000 rpm for 5 minutes to recover the pellets of coli bacillus, which was then suspended in 10 mL of TBS cooled to 4° C. Subsequently, by making use of French Pressure Cell, the fungus body was fractured. […]

In series [2] the test system is CBR luciferase (originating from Hikari Kometsuki). The series can be described thus: Km value of CBR luciferase relative to D-luciferin and ATP (luminometer, photon count). Type of series: biochemical. Conditions: 8 mM MgSO4, 0.1M Tris-HCl pH 8.0. The protocol: as §1, §2, §3, §4, §5, §6, §7, §8, §9, §10
Series [3] relates to ELuc (Emerald Luc) luciferase (originating from Hikari Kometsuki). Briefly: Km value of ELuc luciferase relative to D-luciferin and ATP (luminometer, photon count). Type of series: biochemical. Conditions: 8 mM MgSO4, 0.1M Tris-HCl pH 8.0. The protocol: as §1, §2, §3, §4, §5, §6, §7, §8, §9
(§11) Namely, first of all, a suspension of coli bacillus was subjected to centrifugal separation at 15000 rpm for 5 minutes to recover the pellets of coli bacillus, which was then suspended in 10 mL of TBS cooled to 4° C. Subsequently, by making use of French Pressure Cell, the fungus body was fractured. The resultant fungus body-fractured liquid was subjected to centrifugal separation (15000 rpm, 10 minutes) to remove settled residues and to recover a supernatant liquid.
(§12) Subsequently, 2 mL of TBS was added to a column having 2 mL of bed volume and subjected to filtration. Then, 500 μL of a Ni-Agar suspension and 2 mL of TBS were added to the column and the TBS was allowed to gravitationally drop (column equilibration). The supernatant liquid thus recovered was added to the column and allowed to gravitationally drop. Incidentally, the operation until the drop of the supernatant liquid was completed was performed inside a refrigerator at a temperature of 4° C. […]

The target of series [4] is GL3 luciferase (originating from firefly) (Photinus pyralis, UniProt P08659, K549A/L550V/N119G/N50D/S548I). The series can be described thus: Km value of GL3 luciferase relative to D-luciferin and ATP (luminometer, photon count). In kind it is biochemical. The settings on record: read-out: Km value of GL3 relative to ATP, 10-1280 μM ATP, 1 mM D-luciferin, 8 mM MgSO4, 0.1M Tris-HCl pH 8.0. The protocol: as §1, §2, §3, §4, §5
GL3 luciferase (originating from firefly), sequence (P08659 whole entry N50D/N119G/S548I/K549A/L550V): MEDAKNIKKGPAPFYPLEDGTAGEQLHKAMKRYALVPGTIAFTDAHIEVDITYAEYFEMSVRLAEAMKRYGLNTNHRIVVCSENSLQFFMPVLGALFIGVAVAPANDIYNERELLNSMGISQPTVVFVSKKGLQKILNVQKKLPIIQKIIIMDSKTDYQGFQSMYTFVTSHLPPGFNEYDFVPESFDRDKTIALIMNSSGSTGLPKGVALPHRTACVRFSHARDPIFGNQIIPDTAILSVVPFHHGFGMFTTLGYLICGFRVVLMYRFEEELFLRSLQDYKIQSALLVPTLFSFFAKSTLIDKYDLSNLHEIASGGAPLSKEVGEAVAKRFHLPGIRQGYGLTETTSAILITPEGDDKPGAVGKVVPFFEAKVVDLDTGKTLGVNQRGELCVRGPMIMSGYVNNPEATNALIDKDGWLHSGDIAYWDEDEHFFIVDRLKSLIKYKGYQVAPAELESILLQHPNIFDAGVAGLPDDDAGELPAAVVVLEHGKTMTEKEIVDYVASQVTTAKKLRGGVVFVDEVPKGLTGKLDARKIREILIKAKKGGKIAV
First of all, 0.5 μL of luciferase expression vector was introduced into 50 μL of coli bacillus (JM109(DE3)). Then, the resultant liquid was subjected to a thermostatic treatment consisting of ice-cooling for 10 minutes, heating at 42° C. for one minute and ice-cooling for two minutes. Then, 2 μL of the resultant coli bacillus solution was added to 1 mL of an SOC culture medium. […]

Series [5] has as its system Yaeyama luciferase (Yaeyama Hime firefly, Luciola filiformis yayeyamana; DNA Sequence No. 1). Briefly: Km value of Yaeyama luciferase relative to D-luciferin and ATP (luminometer, photon count). Type of series: biochemical. The settings on record: 8 mM MgSO4, 0.1M Tris-HCl pH 8.0. The protocol: as §1, §2, §3, §4, §5, §6, §7, §8, §9, §11, §12
The test system of a further series is intercellular ATP. Conditions: apoptosis induced by STS; cited from earlier work.
Substrate in series [6]: O=C(O)[C@H]1CSC(c2nc3ccc(O)cc3s2)=N1
The series can be described thus: purified protein, by the assay type. Conditions: 5-640 μM D-luciferin, 4 mM ATP, 8 mM MgSO4, 0.1M Tris-HCl pH 8.0.

Substrate in series [7]: Nc1ncnc2c1ncn2[C@@H]1O[C@H](COP(=O)(O)OP(=O)(O)OP(=O)(O)O)[C@@H](O)[C@H]1O
The series can be described thus: purified protein, by the assay type. In kind it is biochemical, Luciola cruciata. Conditions: 10-1280 μM ATP, 1 mM D-luciferin, 8 mM MgSO4, 0.1M Tris-HCl pH 8.0. The protocol: as §1, §2
By making use of the absorbency (259 nm, 0.359±0.004, n=10) obtained from the spectrum of FIG. 7, the concentration of the ATP stock solution was calculated (ATP: λmax=259 nm, ε=15400, pH=7.0). As a result of the calculation, the concentration of the ATP stock solution was found as being 46.6 mM. […]
Subsequently, the elute was moved 400 μL by 400 μL to a centrifugal concentration tube (SUPREC™-02, available from TaKaRa Co., Ltd. (exclusion limit molecular weight: 30,000)) and then subjected to centrifugal separation (5000 rpm, 30 minutes) until the elute was concentrated to about 100 μL. Thereafter, the absorbency of the concentrated elute was measured by means of a plate reader and the concentration of luciferase was calculated from the calibration curve which was prepared by making use of BSA. […]

Series [8] in a line: Km value of luciferase relative to ATP (luminometer photon count, Example 2). Type of series: biochemical. Here is the method:
(Experiment Method 4: Calculation of Km Value of Various Kind of Luciferase Relative to ATP)
Then, a 0.1M Tris-HCl (pH=8.0) solution of 100 μg/ml luciferase was prepared. The ATP solutions having the aforementioned concentrations were respectively aliquoted to a vessel having 96 wells, thus creating wells each containing 50 μl of the ATP solution.
Then, the luciferase solution was connected with a standard pump of luminometer, after which a program was prepared so as to initiate the measurement concurrent with the addition of 50 μl of the luciferase solution to each of the wells.
Subsequently, the program was started to measure the photon-count value at each ATP concentration. Incidentally, the measurement was repeated five times at each concentration of ATP.
Based on the results obtained, Lineweaver-Burk plot and Hanes-Woolf plot were prepared.

The nature of series [9]: Luminescence pattern measured with a luminometer (time to peak luminescence after addition of luciferin). Type of series: biochemical. The source says: Further, with respect to the luminescence pattern obtained from the measurement using a luminometer also, the results obtained from the luciferase originated from Hikari Kometsuki were found different from the results obtained from the firefly-derived luciferase.
Although data are not shown herein, the results obtained from the Luciferase originated from Hikari Kometsuki were found different from the results obtained from the firefly-derived luciferase with respect also to the luminescence pattern obtained from the measurement using a luminometer.

Where two headings read alike, the source gives them in different places.

As to `Nc1ncnc2c1ncn2[C@@H]1O[C@H](COP(=O)(O)OP(=O)(O)OP(=O)(O)O)[C@@H](O)[C@H]1O` [ATP], the Km in series [1] (Hanes-Woolf plot, 10-1280 μM ATP, 1 mM D-luciferin, read-out: Km value of CBG relative to ATP) was 290 µM; in [2] (Hanes-Woolf plot, 10-1280 μM ATP, 1 mM D-luciferin, read-out: Km value of CBR relative to ATP), 130 µM; in series [2] (Lineweaver-Burk plot, 10-1280 μM ATP, 1 mM D-luciferin, read-out: Km value of CBR relative to ATP), 110 µM; in [3] (Hanes-Woolf plot, 10-1280 μM ATP, 1 mM D-luciferin, read-out: Km value of ELuc relative to ATP), 250 µM; in [3] (Lineweaver-Burk plot, 10-1280 μM ATP, 1 mM D-luciferin, read-out: Km value of ELuc relative to ATP), 364 µM; in [4] (Hanes-Woolf plot) it was 200 µM. Besides, the Km in series [4] (Lineweaver-Burk plot) came out at 200 µM; in series [5] (Hanes-Woolf plot, 10-1280 μM ATP, 1 mM D-luciferin, read-out: Km value of Yaeyama relative to ATP) it was 400 µM; in series [5] (Lineweaver-Burk plot, 10-1280 μM ATP, 1 mM D-luciferin, read-out: Km value of Yaeyama relative to ATP), 400 µM.
For the molecule `O=C(O)[C@H]1CSC(c2nc3ccc(O)cc3s2)=N1` [D-luciferin], the Km in series [1] (read-out: Km value of CBG relative to D-luciferin, Hanes-Woolf plot, 5-640 μM D-luciferin, 4 mM ATP) is 10.5 µM; in series [1] (read-out: Km value of CBG relative to D-luciferin, Lineweaver-Burk plot, 5-640 μM D-luciferin, 4 mM ATP), 10.5 µM; in series [2] (read-out: Km value of CBR relative to D-luciferin, Lineweaver-Burk plot, 5-640 μM D-luciferin, 4 mM ATP) it was 36.4 µM; in [3] (read-out: Km value of ELuc relative to D-luciferin, Hanes-Woolf plot, 5-640 μM D-luciferin, 4 mM ATP), 15 µM; in series [3] (read-out: Km value of ELuc relative to D-luciferin, Lineweaver-Burk plot, 5-640 μM D-luciferin, 4 mM ATP) it was 15 µM; in [5] (read-out: Km value of Yaeyama relative to D-luciferin, Hanes-Woolf plot, 5-640 μM D-luciferin, 4 mM ATP), 100 µM. The Michaelis constant (Km) in [5] (read-out: Km value of Yaeyama relative to D-luciferin, Lineweaver-Burk plot, 5-640 μM D-luciferin, 4 mM ATP) worked out at 100 µM.
Consider `CN[C@@H]1C[C@H]2O[C@@](C)([C@@H]1OC)n1c3ccccc3c3c4c(c5c6ccccc6n2c5c31)C(=O)NC4` [STS, Staurosporine], for which the “intercellular ATP concentration at the initial stage of apoptosis” value with intercellular ATP was “caused to increase”.

B1: Genji luciferase (Genji firefly, Luciola cruciata) (Nipponoluciola cruciata) (protein)
chain: MENMENDENIVVGPKPFYPIEEGSAGTQLRKYMERYAKLGAIAFTNAVTGVDYSYAEYLEKSCCLGKALQNYGLVVDGRIALCSENCEEFFIPVIAGLFIGVGVAPTNEIYTLRELVHSLGISKPTIVFSSKKGLDKVITVQKTVTTIKTIVILDSKVDYRGYQCLDTFIKRNTPPGFQASSFKTVEVDRKEQVALIMNSSGSTGLPKGVQLTHENTVTRFSHARDPIYGNQVSPGTAVLTVVPFHHGFGMFTTLGYLICGFRVVMLTKFDEETFLKTLQDYKCTSVILVPTLFAILNKSELLNKYDLSNLVEIASGGAPLSKEVGEAVARRFNLPGVRQGYGLTETTSAIIITPEGDDKPGASGKVVPLFKAKVIDLDTKKSLGPNRRGEVCVKGPMLMKGYVNNPEATKELIDEEGWLHTGDIGYYDEEKHFFIVDRLKSLIKYKGYQVPPAELESVLLQHPSIFDAGVAGVPDPVAGELPGAVVVLESGKNMTEKEVMDYVASQVSNAKRLRGGVRFVDEVPKGLTGKIDGRAIREILKKPVAKM
In the case of B1, the Km in series [6] (other: Hanes-Woolf plot) stood at 75.0 µM; in series [6] (other: Lineweaver-Burk plot), 75.0 µM; in [7] (other: Hanes-Woolf plot), 500 µM; in series [7] (other: Lineweaver-Burk plot), 500 µM.

B2: Yaeyama: luciferase originated from Yaeyama Hime firefly (Luciola filiformis yayeyamana), DNA sequence of Sequence No. 1 (protein)
chain: MEMEKEENVVYGPQPFYPIEAGSAGIQLHKYMHQYAQLGAIAFSNALTGVDISYQEYFDITCRLAEAMKNYGMTQEGRIALCSENCEEFFIPVVAGLYIGVGVAPTNEIYTLRELNHSLGIAEPTIVFSSRKGLPKVLEVQKNVTCIKTIVILDSKVNFGGYDCVETFIKKNVPSGFQPSSFKPMDVKNRKEHLALLMNSSGSTGLPKGVQITHEGTVTRFSHAKDPIYGNQVSPGTAILTVVPFHHGFGMFTTLGYFACGYRVVMLTKFDEELFLKTLQDYKCTSVILVPTLFGILNKSELIDKFDLSNLTEIASGGAPLAKEVGEAVARRFNLPGIRQGYGLTETTSAFIITPEGDDKPGASGKVVPLFKVKVIDLDTKKTLGVNRRGEICVKGPSLMKGYVRNPEATKEIIDDEGWMHTGDIGYYDEDEHFFIVDRLKSLIKYKGYQVPPAELESVLLQHPNIFDAGVAGVPDPEAGELPGAVVVLEKGKTMTEKQIVEYVNSQVVNHKRLRGGVRFVDEVPKGLTGKIDAKVIREILKKPQSKM
modifications: Luciola filiformis yayeyamana
As for B2, the “affinity to ATP as compared with other kinds of luciferase” value in [8] was “relatively low in affinity to ATP”. For the same molecule, the “time of peak luminescence intensity after the addition of luciferin” value in [9] lay in the range of 0.5 to 1 s.

As usually defined, the Km is the concentration of substrate that gives half-maximal velocity.
